Results as given in patent US11766434B2, “Pyrimidinone derivatives as CDC7 inhibitors” (Cancer Research Technology Limited, priority 2016, dated 2023).

How the values were obtained:
[1] = molecular target: Cdc7 (Homo sapiens, UniProt O00311); assay: Cdc7 cell pharmacodynamics assay Method 2: pS40MCM2 levels in HCT116 cells; type: cell-based; design: endogenous in cells; settings: 18 hours treatment, read-out: Biomarker Method 2 (pEC50) (converted)
Source text: This protocol describes a method to investigate the inhibition of Cdc7 activity by measuring pS40MCM2 levels in cells, after treatment with compounds.
• HCT116 cells (ATCC, #CCL-247) • McCoys 5A with L-glutamine (Cellgro, #10-050-CV) • 10% FCS (Cellgro, #35-010-CV) • D-PBS without CaCl2 and MgCl2 (Cellgro, #21-031-CV) • Trypsin/EDTA (Cellgro, #25-052-CL) • BSA (Calbiochem, 126593) • Cell Extraction Buffer (Invitrogen FNN0011) • Protease inhibitor cocktail (Sigma P-2714) • PMSF 0.3M stock in DMSO (Sigma P7626) • Antibody—rabbit pMCM2 Ser40 (Abeam, AB133243) • Antibody—goat MCM2 (Bethyl #A300-122A) • Antibody—goat Anti Rabbit IgG HRP (Thermo, 31462) • SuperSignal ELISA Pico Chemiluminescent Substrate (Perbio Science UK Ltd 37069) • 10×PBS (Growcells, MRGF-6236) • Triton X100 (Sigma, P-T8787) • DMSO (Fisher, D128-1) • 2-Propanol (J. T. Baker, 9095-03) Method • Seed 1×10^6 HCT116 cells into each of two 175 cm^2 flask containing 30 mL Cell Growth Media and incubate at 37° C., 5% CO2 for 3 days. • Harvest the cells from one T175 cm^2 flask and count. • Dilute with Cell Growth Media to a cell density of 2×10^5. Dispense 100 μL to each well (20,000 HCT116 cells/well) of TC treated 96-well plate(s). • Allow cells to settle overnight in incubator set at 37° C. and 5% CO2. • Cell treatment: Transfer 0.25 μL/well from the compound plate to the wells of the cell plate(s). This is a 1:400 dilution of compound in the assay. • Once all cells are treated place the cells back to the incubator and incubate for 18 hours. • Dilute the capture antibody (total MCM2 #A300-122A) 1 in 250 in the required volume of PBS (5 mL per assay plate, plus 5 mL for dead volume) and add 50 μL to each well of a Hybond plate except wells A12 & B12. Seal the plate and incubate at room temperature fora minimum of 2 hours. • Defrost aliquot of Invitrogen Cell Extraction Buffer (FNN0011) on ice and supplement with appropriate volume of both Sigma protease inhibitor cocktail (P-2714) and PMSF (final cone 1 mM from a 1 M stock in DMSO). • After the 6 hour or 18 hour cell treatment time, tap out the media from the assay plates and place them in the −70° C. freezer for at least 5 minutes. • Flick out the remaining liquid in the previously prepared capture Ab plate(s) and add 200 μL 2% BSA per well. Incubate for 1 hour at room temperature. • Remove plates from freezer and add 20 μL of ice cold complete lysis buffer. Incubate cells for 30 minutes at 4° C. • Add 30 μL per well 2% BSA • At the end of the 1 hour incubation, wash the Capture/ELISA plate(s) with Wash Buffer on the BioTek plate washer. • Transfer 40 μL per well of the lysis plate(s) to the same wells in the Capture/ELISA plate. Incubate cells overnight at 4° C. • At the end of the overnight incubation, wash the ELISA plate(s) with Wash Buffer on BioTek plate washer. • Prepare Detection Antibody Buffer and dispense 50 μL to all wells of ELISA plate(s) except wells G1 & H1. Cover plate and incubate at room temperature for 2 hours with gentle shaking. • At the end of the 2 hour incubation, wash the ELISA plate(s) with Wash Buffer on the BioTek plate washer. • Prepare the Conjugated Antibody Buffer and dispense 50 μL to all wells of ELISA plate(s). • Cover the plate and incubate at room temperature for 1 hour with gentle shaking. • At the end of the 1 hour incubation, wash the ELISA plate(s) with Wash Buffer on the BioTek plate washer. • Prepare Substrate Buffer and dispense 50 μL to all wells of ELISA plate(s). • Incubate for a minimum of 10 minutes and read plates on the EnVision 2100 Multilabel Reader (Mirror: Luminescence (404) & Luminescence 700 (212); Measurement Height: 6.5 mm; Measurement Time: 0.2 s). Method 3

[2] = molecular target: Cdc7/ASK (Homo sapiens, UniProt O00311); assay: Cdc7 biochemical assay Method 3: off-chip mobility shift assay (MSA) run at Carna Biosciences; design: purchased Carna Biosciences; host or cells: baculovirus expression system; settings: MCM2 peptide 1000 nM, ATP 5 μM, 5 hours, read-out: Biochemical method 3 (pIC50) (converted)
Cdc7/ASK, sequence (O00311 whole entry): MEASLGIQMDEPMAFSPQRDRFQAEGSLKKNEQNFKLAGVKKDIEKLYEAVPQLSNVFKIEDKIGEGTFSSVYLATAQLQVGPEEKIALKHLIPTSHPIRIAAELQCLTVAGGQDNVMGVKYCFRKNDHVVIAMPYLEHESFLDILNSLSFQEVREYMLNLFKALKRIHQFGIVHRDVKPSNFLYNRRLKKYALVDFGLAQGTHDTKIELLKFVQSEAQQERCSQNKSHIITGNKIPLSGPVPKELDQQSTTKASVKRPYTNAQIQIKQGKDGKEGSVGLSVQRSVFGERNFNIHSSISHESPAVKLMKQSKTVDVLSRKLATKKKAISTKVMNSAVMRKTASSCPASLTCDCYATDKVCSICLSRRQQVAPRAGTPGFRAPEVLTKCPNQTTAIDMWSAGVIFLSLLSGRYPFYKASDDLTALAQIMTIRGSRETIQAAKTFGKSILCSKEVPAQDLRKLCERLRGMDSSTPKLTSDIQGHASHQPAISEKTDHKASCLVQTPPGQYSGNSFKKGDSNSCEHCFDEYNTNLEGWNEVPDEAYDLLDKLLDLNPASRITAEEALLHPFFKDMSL
Cdc7/ASK, sequence (Q9UBU7 whole entry partner): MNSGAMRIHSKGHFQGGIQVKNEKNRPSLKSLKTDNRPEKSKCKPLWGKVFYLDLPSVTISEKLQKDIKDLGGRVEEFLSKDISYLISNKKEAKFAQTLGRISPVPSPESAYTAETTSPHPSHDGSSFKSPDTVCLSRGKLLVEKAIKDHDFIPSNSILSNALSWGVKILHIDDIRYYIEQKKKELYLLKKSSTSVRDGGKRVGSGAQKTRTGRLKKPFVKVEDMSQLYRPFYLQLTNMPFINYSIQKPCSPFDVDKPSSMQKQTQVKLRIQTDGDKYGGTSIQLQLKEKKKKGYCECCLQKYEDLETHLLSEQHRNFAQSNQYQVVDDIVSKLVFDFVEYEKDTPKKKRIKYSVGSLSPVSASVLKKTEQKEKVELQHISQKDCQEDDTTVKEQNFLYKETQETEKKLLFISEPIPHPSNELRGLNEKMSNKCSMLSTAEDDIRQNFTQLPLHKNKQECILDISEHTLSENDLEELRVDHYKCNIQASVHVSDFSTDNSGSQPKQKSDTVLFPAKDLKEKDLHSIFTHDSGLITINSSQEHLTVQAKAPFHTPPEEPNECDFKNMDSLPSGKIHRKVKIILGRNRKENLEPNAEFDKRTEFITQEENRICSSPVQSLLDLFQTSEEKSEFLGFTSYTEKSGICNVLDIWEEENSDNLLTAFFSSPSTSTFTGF
Experimental: This protocol describes a method for assaying Cdc7/ASK for activity. The assay is an off-chip mobility shift assay (MSA) run at Carna Biosciences.
The test compound was dissolved in and diluted with dimethylsulfoxide (DMSO) to achieve 100-fold higher concentration which was specified by the sponsor. Then the solution was further 25-fold diluted with assay buffer to make the final test compound solution. Reference compounds for assay control were prepared similarly. 2. Kinase Cdc7/ASK: Full-length human Cdc7 [1-574(end) amino acids of accession number NP_003494.1] was co-expressed as N-terminal GST-fusion protein (92 kDa) with Dbf4(ASK) [1-674(end) amino acids of accession number NP_006707.1] using baculovirus expression system. GST-Cdc7 was purified by using glutathione sepharose chromatography. 3. Assay Reagents and Procedures Off-Chip Mobility Shift Assay (MSA) • 1) The […] were prepared with assay buffer (20 mM HEPES, 0.01% Triton X-100, 1 mM DTT, pH 7.5) and mixed and incubated in a well of polypropylene 384 well microplate for 5 hours at room temperature. • 2) […] of Termination Buffer (QuickScout Screening Assist MSA; Carna Biosciences) was added to the well. • 3) The reaction mixture was applied to LabChip system (Perkin Elmer), and the product and substrate peptide peaks were separated and quantitated. • 4) The kinase reaction was evaluated by the product ratio calculated from peak heights of product (P) and substrate (S) peptides (P/(P+S)). 4. Reaction Conditions
5. Data Analysis The readout value of reaction control (complete reaction mixture) was set as a 0% inhibition, and the readout value of background (Enzyme(−)) was set as a 100% inhibition, then the percent inhibition of each test solution was calculated. IC50 value was calculated from concentration vs. % Inhibition curves by fitting to a four parameter logistic curve. Results

Cdc7, sequence (O00311 whole entry): as the sequence (O00311 whole entry) above
Cdc7, sequence (Q9UBU7 whole entry partner): as the sequence (Q9UBU7 whole entry partner) above

| EC50 [1] [nM] | IC50 [2] [nM] | Compound |
| --- | --- | --- |
| 7.24 | 3.98 | C[C@@H]1COCCN1c1nc(-c2cn[nH]c2C(F)(F)F)[nH]c(=O)c1Cl [Compound 41, 5-chloro-4-[(3R)-3-methylmorpholin-4-yl]-2-[5-(trifluoromethyl)-1H-pyrazol-4-yl]-1H-pyrimidin-6-one] |
| 25.1 | 6.17 | C[C@@H]1CNCCN1c1nc(-c2cn[nH]c2C(F)(F)F)[nH]c(=O)c1Cl [Compound 44, 5-chloro-4-[(2R)-2-methylpiperazin-1-yl]-2-[5-(trifluoromethyl)-1H-pyrazol-4-yl]-1H-pyrimidin-6-one] |
| 372 |  | O=c1[nH]c(-c2cn[nH]c2C(F)(F)F)nc(C2CCOCC2)c1Cl [Compound 17, 5-chloro-4-tetrahydropyran-4-yl-2-[5-(trifluoromethyl)-1H-pyrazol-4-yl]-1H-pyrimidin-6-one] |
| 38 | 3.89 | C[C@@H]1CNCCN1c1nc(-c2cn[nH]c2Cl)[nH]c(=O)c1Cl [Compound 43, 5-chloro-2-(5-chloro-1H-pyrazol-4-yl)-4-[(2R)-2-methylpiperazin-1-yl]-1H-pyrimidin-6-one] |
